Laboratory results taken from patent publication US9956301B2, “Complex of garcinol, cyclodextrin and method thereof” (Indus Biotech Private Limited, priority 2010, dated 2018).
Read-outs that look alike come from different tables or passages of the source.

How the values were obtained:
[1] = test system: Doxorubicin induced cardiac dysfunction; test: Activity of Garcinol against Doxorubicin induced cardiac dysfunction; assay type: in vivo; conditions: rats; for Glutathione / Lipid Peroxidation: heart tissue, Garcinol 100 mg/kg p.o. + Doxorubicin 10 mg/kg i.v., n = 4
Description: Male Wistar rats were pretreated with Garcinol at 10, 25, 50, 100 and 200 mg/kg (p.o.) for 18 days. On day 16, Doxorubicin at a dose of 10 mg/kg (i.v.) was administered intravenously. On day 18, animals were sacrificed. […] Elevated oxidative stress on the heart was also seen from increased lipid peroxidation and decreased glutathione (GSH) concentrations.

[2] = test system: Doxorubicin induced cardiac dysfunction; assay type: in vivo; conditions: rats, Doxorubicin Control = Doxorubicin alone, Mean ± SEM; for Glutathione / Lipid Peroxidation: heart tissue, Test Molecule 20 mg/kg p.o. + Doxorubicin 10 mg/kg i.v., n = 4; for Diastolic Blood Pressure / Mean Arterial Blood Pressure / Systolic Blood Pressure: Test Molecule 20 mg/kg p.o. 18 days + Doxorubicin 10 mg/kg i.v. day 16; for Diastolic Blood Pressure / Mean Arterial Blood Pressure / Systolic Blood Pressure / Difference in Heart Rate / Difference in QT interval / Difference in ST interval: n = 6; for Difference in Heart Rate / Difference in QT interval / Difference in ST interval: pretreatment p.o. 18 days (Test Molecule 20 mg/kg) + Doxorubicin 10 mg/kg i.v. day 16
Description: Male Wistar rats were pretreated with 20 mg/kg (p.o.) of test molecule for 18 days. On day 16, Doxorubicin at a dose of 10 mg/kg (i.v.) was administered intravenously. On day 18, animals were sacrificed. […] It also induces significant prolongation of QT and ST intervals. Significant reduction of mean arterial blood pressure, systolic and diastolic blood pressures were observed. Elevated oxidative stress on the heart was also seen from increased lipid peroxidation and decreased glutathione (GSH) concentrations.

[3] = test system: cardiac dysfunction induced by chronic Doxorubicin administration; test: Effect of test molecule in chronic administration of Doxorubicin; assay type: in vivo, Male Wistar rats; conditions: for Cytoplasmic Eosinophilia / Cytoplasmic vacuoles / Inflammation / Myocardial necrosis / Vascular congestion: heart histopathology, day 30, chronic Doxorubicin, Test Molecule 20 mg/kg; for Cytoplasmic Eosinophilia / Cytoplasmic vacuoles / Inflammation / Myocardial necrosis / Vascular congestion / Glutathione / Lipid Peroxidation: n = 4; for Glutathione / Lipid Peroxidation: heart tissue, Test Molecule 20 mg/kg p.o. 30 days + chronic Doxorubicin; for Glutathione / Lipid Peroxidation / Diastolic Blood Pressure / Mean Arterial Blood Pressure / Systolic Blood Pressure / Difference in Heart Rate / Difference in QT interval / Difference in QTc interval / Difference in ST interval: rats, Doxorubicin Control = Doxorubicin alone, Mean ± SEM; for Diastolic Blood Pressure / Mean Arterial Blood Pressure / Systolic Blood Pressure: Test Molecule 20 mg/kg p.o. 30 days + chronic Doxorubicin 3 mg/kg x 5; for Diastolic Blood Pressure / Mean Arterial Blood Pressure / Systolic Blood Pressure / Difference in Heart Rate / Difference in QT interval / Difference in QTc interval / Difference in ST interval: n = 6; for Difference in Heart Rate / Difference in QT interval / Difference in QTc interval / Difference in ST interval: pretreatment p.o. 30 days (Test Molecule 20 mg/kg) + Doxorubicin 3 mg/kg on days 1, 7, 14, 21, 28
Description: Male Wistar rats were pretreated with 20 mg/kg (p.o.) of test molecule for 30 days. On days 1, 7, 14, 21 and 28, Doxorubicin at a dose of 3 mg/kg […] was administered intravenously. On Day 30, animals were sacrificed for histopathological examination of the heart.

[4] = Water solubility of Garcinol and test molecule; assay type: physicochemical; conditions: room temperature
Description: Garcinol is insoluble in water at room temperature.

[5] = test system: Isoproterenol induced cardiac dysfunction; test: Cardioprotective activity of test molecule in Isoproterenol induced cardiac dysfunction; assay type: in vivo, Male Wistar rats; conditions: rats, Isoproterenol Control = Isoproterenol alone, Mean ± S.E.M.
Description: Male Wistar rats were pretreated with 20 mg/kg (p.o.) of test molecule 18 days. From Day 9, Isoproterenol at a dose of 1 mg/kg/day was administered intravenously for 10 days. Isoproterenol administration induced significant changes to the QT and ST interval. Isoproterenol induced oxidative stress was observed by decreased Glutathione (GSH) and increased lipid peroxidation concentrations in the heart.

[6] = test system: Digitalis induced cardiac dysfunction; test: Cardioprotective activity of test molecule in Digitalis induced cardiac dysfunction; assay type: in vivo, Male Wistar rats
Description: Male Wistar rats were pretreated with 20 mg/kg (p.o.) of test molecule for 18 days. On Day 18, Digitalis at a three doses of 500 […] was administered intravenously with interval period of 15 min. After this, 200 […] was administered every 15 min continued upto cardiac arrest. Histopathological examination of the heart was conducted.

[7] = Doxorubicin Control = Doxorubicin alone, Mean ± SEM
[8] = Garcinol 100 mg/kg p.o. 18 days + Doxorubicin 10 mg/kg i.v. day 16, Doxorubicin Control = Doxorubicin alone, Mean ± SEM, n = 6
[9] = heart tissue, Test Molecule 20 mg/kg + Isoproterenol, n = 4
[10] = test molecule 20 mg/kg p.o. 18 days + Isoproterenol 1 mg/kg/day i.v. 10 days from Day 9, n = 5
[11] = heart histopathology, Digitalis induced cardiac dysfunction, n = 4
[12] = rats, test molecule 20 mg/kg p.o. 18 days + Digitalis i.v., Digitalis Control = Digitalis alone, Mean ± S.E.M, n = 4
[13] = rats, test molecule 20 mg/kg p.o. 18 days, then Digitalis i.v. every 15 min up to cardiac arrest, Digitalis Control = Digitalis alone, Mean ± S.E.M., n = 6

Compound | Glutathione [1, 7] | Lipid Peroxidation [1, 7] | Glutathione [2] | Lipid Peroxidation [2] | Diastolic Blood Pressure [2] [mm Hg] | Mean Arterial Blood Pressure [2] [mm Hg] | Systolic Blood Pressure [2] [mm Hg] | Difference in Heart Rate [2] [bpm] | Difference in QT interval [2] [s] | Difference in ST interval [2] [s] | Cytoplasmic Eosinophilia [3] | Cytoplasmic vacuoles [3] | Inflammation [3] | Myocardial necrosis [3] | Vascular congestion [3] | Glutathione [3] | Lipid Peroxidation [3] | Diastolic Blood Pressure [3] [mm Hg] | Mean Arterial Blood Pressure [3] [mm Hg] | Systolic Blood Pressure [3] [mm Hg] | further results
COc1cccc2c1C(=O)c1c(O)c3c(c(O)c1C2=O)C[C@@](O)(C(=O)CO)C[C@@H]3O[C@H]1C[C@H](N)[C@H](O)[C@H](C)O1 [Doxorubicin] | 16.10 ± 1.17 μg/mg of protein | 4.56 ± 0.47 nmol of MDA/mg of Protein | 17.29 ± 0.4496 μg/mg of protein | 4.160 ± 0.3427 nmol of MDA/mg of Protein | 75.96 ± 3.611 | 89.26 ± 1.837 | 89.44 ± 5.108 | −33.67 ± 15.96 | 0.0229 ± 0.00206 | 0.015 ± 0.001497 | +++ ((+++) 60-90% of cells show changes) | ++ ((++) 30-60% of cells show changes) | +++ ((+++) 60-90% of cells show changes) | +++ ((+++) 60-90% of cells show changes) | ++ ((++) 30-60% of cells show changes) | 15.05 ± 0.8970 μg/mg of protein | 4.631 ± 0.3671 nmol of MDA/mg of Protein | 82.81 ± 1.997 | 86.67 ± 0.9226 | 92.59 ± 1.728 | Number of Animals Deaths ([1]; Doxorubicin Control: Doxorubicin 10 mg/kg i.v. day 16 alone): 0/6; Difference in Heart Rate [1, 8]: −77.5 ± 19.63 bpm; Difference in QT interval [1, 8]: 0.014 ± 0.0035 s; Difference in ST interval [1, 8]: 0.0085 ± 0.0048 s; Difference in Heart Rate [3]: −64.59 ± 12.13 bpm; Difference in QT interval [3]: 0.015 ± 0.00087 s; Difference in QTc interval [3]: 0.035 ± 0.0046 s; Difference in ST interval [3]: 0.016 ± 0.0015 s
C=C(C)[C@@H](CC=C(C)C)C[C@@]12C[C@@H](CC=C(C)C)C(C)(C)[C@@](CC=C(C)C)(C(=O)C(C(=O)c3ccc(O)c(O)c3)=C1O)C2=O [Garcinol] | 22.05 ± 1.031 μg/mg of protein | 1.69 ± 0.04 nmol of MDA/mg of Protein | – | – | – | – | – | – | – | – | – | – | – | – | – | – | – | – | – | – | Animal mortality / toxicity (in words) ([1]; Garcinol 100 to 200 mg/kg p.o., Doxorubicin 10 mg/kg i.v.): animal mortality was observed; Water solubility [4]: insoluble
CC(C)NCC(O)c1ccc(O)c(O)c1 (stereo not shown) [Isoproterenol] | – | – | – | – | – | – | – | – | – | – | – | – | – | – | – | – | – | – | – | – | Glutathione [5, 9]: 19.02 ± 0.8526 μg/mg of protein; Lipid Peroxidation [5, 9]: 4.443 ± 0.0392 nmol of MDA/mg of Protein; Difference in Heart Rate [5, 10]: 43.66 ± 6.267 bpm; Difference in QT interval [5, 10]: 0.01686 ± 0.002 s; Difference in ST interval [5, 10]: 0.0180 ± 0.0009 s; Mean Arterial Blood Pressure [5, 10]: 72.45 ± 5.942 mm Hg
Cyclodextrin | – | – | 16.76 ± 0.4971 μg/mg of protein | 4.056 ± 0.2880 nmol of MDA/mg of Protein | 76.83 ± 1.709 | 89.26 ± 2.357 | 89.88 ± 4.507 | −34.87 ± 6.935 | 0.0225 ± 0.00091 | 0.014 ± 0.001025 | ++ ((++) 30-60% of cells show changes) | ++ ((++) 30-60% of cells show changes) | +++ ((+++) 60-90% of cells show changes) | +++ ((+++) 60-90% of cells show changes) | ++ ((++) 30-60% of cells show changes) | 15.15 ± 0.6584 μg/mg of protein | 4.700 ± 0.6126 nmol of MDA/mg of Protein | 80.00 ± 2.298 | 88.04 ± 1.813 | 92.22 ± 2.275 | Difference in Heart Rate [3]: −66.22 ± 8.303 bpm; Difference in QT interval [3]: 0.015 ± 0.00437 s; Difference in QTc interval [3]: 0.033 ± 0.0092 s; Difference in ST interval [3]: 0.016 ± 0.0022 s
Digitalis | – | – | – | – | – | – | – | – | – | – | – | – | – | – | – | – | – | – | – | – | Cytoplasmic Eosinophilia [6, 11]: ++ ((++) 30-60% of cells show changes); Cytoplasmic vacuoles [6, 11]: ++ ((++) 30-60% of cells show changes); Inflammation [6, 11]: +++ ((+++) 60-90% of cells show changes); Myocardial necrosis [6, 11]: +++ ((+++) 60-90% of cells show changes); Vascular congestion [6, 11]: ++ ((++) 30-60% of cells show changes); Glutathione [6, 12]: 21.01 ± 0.5369 μg/mg of protein; Lipid Peroxidation [6, 12]: 6.909 ± 0.4459 nmol of MDA/mg of Protein; Dose of Digitalis required for inducing Arterial Fibrillation [6, 13]: 2.933 ± 0.2333 mg/kg; Dose of Digitalis required for inducing Cardiac Arrest [6, 13]: 3.067 ± 0.2801 mg/kg; Dose of Digitalis required for inducing Ectopic Beats [6, 13]: 2.7 ± 0.2129 mg/kg
